Measurements as given in patent US20070111258A1, “Compositions and methods for modulating the acute phase response” (priority 2005, published 2007).

How the values were obtained:
[1] = tested on: BiP, CHOP, EDEM, spliced XBP1, SAP and CRP mRNAs; assay: UPR and APR mRNA induction in mouse liver after injection (quantitative real-time RT-PCR); format: in vivo; details: intraperitoneal injection of Tm 2 mg/kg; 24 hours
Procedure: Levels of spliced XBP1 mRNA were determined by quantitative real-time RT-PCR (lower panel). […] (B) Induction of CRP, SAP, BiP and spliced XBP1 mRNAs in mice injected with Tm. C57BU6J mice at 3-months of age were injected intraperitoneally with Tm (2 mg/kg body weight) in 150 mM dextrose solution. Mice were injected with the same volume of dextrose solution as a control. Liver tissues were collected from mice at 24 hours after injection for RNA isolation. (C-E) Induction of the BiP, CHOP, EDEM, spliced XBP1, SAP and CRP mRNAs in mice challenged with IL6, IL1β, LPS or Tm. Wild-type C57B1/6J mice at 3-months of age were intraperitoneally injected with recombinant murine IL6 (25 ng/gram body weight), recombinant murine IL1β (25 ng/gram body weight), LPS (3 μg/gram body weight) or Tm (2 μg/gram body weight). Mice were injected with the same volume of NaCL (for panels C and D) or dextrose (for panels E) solution as controls. At 24 hours after injection, liver samples were collected for isolating total RNA. Quantitative real-time RT-PCR was used to determine the mRNA levels. Fold changes of mRNA induction were determined after normalization of the mRNA levels to internal control 18S ribosomal RNA levels. Each bar denotes the mean±S.D., n=5 mice per injection.
Quantitative real-time RT-PCR was performed as previously described (Back et al., 2005). Briefly, total cellular RNA prepared was reverse-transcribed to cDNA using a random primer (Applied Biosystems). The reaction mixture, containing SYBR Green PCR Master Mix (Applied Biosystems), was run in a 7900HT Fast Real-Time PCR System (Applied Biosystems). Real-time PCR primer sequences for quantification of murine XBP1 mRNA splicing are: the forward primer 5′-[sequence]-3′, and the reverse primer 5′-[sequence]-3′. Other primer sequences were designed by Primer Express (Applied Biosystems).

[2] = tested on: CREBH; assay: Confocal immunofluorescence of CREBH translocation in COS7 cells; format: cell-based; details: Tm 5 μg/ml 4 hours
Procedure: FIG. 3 depicts the effects of ER stress on CREBH: proteolytic cleavage of CREBH to release its N-terminal fragment that translocates into the nucleus. (A) Illustration of transmembrane domains and lumenal domains of SREBP, ATF6, Luman and CREBH in human (hs), mouse (mm). The conserved residues for S1P and S2P recognition are highlighted. (B) Cleavage of CREBH in H2.35 cells under different stimuli. H2.35 cells stably expressing flag-tagged human CREBH were treated with 0.5 μg/ml BFA, 20 ng/ml TNFα, 40 ng/ml IL6, 5 mM DTT, 0.5 μM Tg or 5 μg/ml Tm for 8 hours. Untransfected H2.35 cells (lane 1) and the H2.35 cells that stably express human CREBH (lane 2) were cultured under normal conditions as control. Total cell lysates were collected for Western blot analysis by using an anti-flag monoclonal antibody (upper panel). Levels of α-actin were determined for control of protein loading (lower panel). (C) Cleavage of CREBH in H2.35 cells under Tm treatment for various time periods. The H2.35 cells stably expressing flag-tagged CREBH were cultured in the absence or presence of Tm (5 μg/ml) for 4, 8 or 12 hours. […]
Immunofluorescence staining was performed as previously described (Paterson et al., 1995). […] The fluorescence images were examined by a confocal laser scanning fluorescence microscopy using an LSM510 (Carl Zeiss, Thornwood, N.Y.).

[3] = tested on: ApoB mRNA; assay: Endogenous ApoB mRNA in mouse liver; format: in vivo; details: Tm 2 μg/gram body weight i.p.; liver at 24 hours
Procedure: C57BL/6J mice at 3-months of age were injected intraperitoneally with Tm (2 μg/gram body weight) in 150 mM dextrose solution. Mice were injected with the same volume of dextrose solution as a control. Liver tissue were collected from mice at 24 hours after injection for RNA isolation. Quantitative real-time RT-PCR was used to determine the ApoB and the spliced XBP1 mRNA levels. Fold changes of mRNA induction were determined after normalization of the mRNA levels to internal control 18S ribosomal RNA levels. Data points are fold changes of the ApoB or spliced XBP1 mRNA levels for individuals, n=5 mice per injection.

[4] = tested on: CRP and SAP mRNA; assay: CRP and SAP mRNA in mouse primary hepatocytes (Northern blot); format: cell-based; details: Tm 5 μg/ml 2, 4, 6, 8 hours
Procedure: Primary hepatocytes were isolated from fetal livers of C57BL/6J mice at embryonic stage E18, and were then treated with Tm (5 μg/ml) for 2, 4, 6, and 8 hours. Total RNA was isolated and subjected to Northern blot analysis to determine levels of CRP, SAP and BiP mRNAs (upper panel). Levels of spliced XBP1 mRNA were determined by quantitative real-time RT-PCR (lower panel). For panels A-B, experiments were performed at least 3 times and representative data are shown. […] Quantitative real-time RT-PCR was used to determine the mRNA levels.
Primary hepatocytes were isolated from fetal livers of C57BL/6J mice at embryonic stage E18 as previously described (Mackey and Darlington, 2004).

[5] = tested on: CRP; assay: Serum CRP in CREBH knockdown and control RNAi mice (ELISA); format: in vivo, mouse; details: 24 hours after injection
Procedure: (A) Identification of CREBH knockdown mice by Northern blot analysis. Transgenic mice with empty vector lentivirus expressing GFP were used as controls. Total RNAs (15 μg/lane) were isolated from the livers of the CREBH RNAi or the control mice, and subjected to Northern blot analysis. A 260 bp GFP cDNA fragment and a 210 bp mouse CREBH cDNA fragment were used as probes for detecting levels of GFP mRNA and CREBH mRNA, respectively. Levels of ββ-actin mRNA were determined for control of sample loading. (B) Morphology of CREBH knockdown embryos. The embryos were collected at gestation stage E14.5. The paraffin-embedded embryo sections were stained with hematoxylin and eosin. Magnification: 20 X. (C) Northern blot analysis of levels of CREBH, CRP and SAP mRNA in the livers of the CREBH knockdown or the control mice. Levels of β-actin mRNA were determined for sample loading controls. (D-E) Serum levels of SAP and CRP in the CREBH knockdown and the siRNA control mice in response to IL6 plus IL1β LPS or Tm. CREBH knockdown and RNAi control mice at 3-months of age were challenged with recombinant mouse IL6 (25 ng/gram body weight) plus recombinant mouse IL1β (25 ng/gram body weight), LPS (3 μg/gram body weight) or Tm (2 mg/kg body weight). Serum levels of SAP and CRP in the mice were determined before injection and at 24 hours after IL6 plus IL1β, LPS or Tm injection. […]

tunicamycin [Tm]
expression of APR genes and UPR genes in the livers of mice [1]: induced expression of both the APR genes and the UPR genes | nuclear accumulation of immunoreactive CREBH protein [2]: a significant portion of the immunoreactive CREBH protein accumulated in the nucleus | induction of endogenous ApoB mRNA in mice [3]: only slightly increased | expression of the CRP and SAP mRNA [4]: increased expression of the CRP and SAP mRNA in a time-dependent manner | increase of serum levels of CRP ([5]; control RNAi mice): approximately 2 fold | increase of serum levels of CRP ([5]; treated CREBH knockdown mice): no such increase
